# According to ChEMBL document CHEMBL5291721, “A preclinical secondary pharmacology resource illuminates target-adverse drug reaction associations of marketed drugs” (Nat Commun, 2023):
# Experiments:
# Acetylcholinesterase = Acetylcholinesterase (Homo sapiens, UniProt P22303); type: functional
# D(1A) dopamine receptor = D(1A) dopamine receptor (Homo sapiens, UniProt P21728)
# [1] = biological target: T1, Muscarinic acetylcholine receptor M2 (Homo sapiens, UniProt P08172)
# T1 sequence (P08172 whole entry): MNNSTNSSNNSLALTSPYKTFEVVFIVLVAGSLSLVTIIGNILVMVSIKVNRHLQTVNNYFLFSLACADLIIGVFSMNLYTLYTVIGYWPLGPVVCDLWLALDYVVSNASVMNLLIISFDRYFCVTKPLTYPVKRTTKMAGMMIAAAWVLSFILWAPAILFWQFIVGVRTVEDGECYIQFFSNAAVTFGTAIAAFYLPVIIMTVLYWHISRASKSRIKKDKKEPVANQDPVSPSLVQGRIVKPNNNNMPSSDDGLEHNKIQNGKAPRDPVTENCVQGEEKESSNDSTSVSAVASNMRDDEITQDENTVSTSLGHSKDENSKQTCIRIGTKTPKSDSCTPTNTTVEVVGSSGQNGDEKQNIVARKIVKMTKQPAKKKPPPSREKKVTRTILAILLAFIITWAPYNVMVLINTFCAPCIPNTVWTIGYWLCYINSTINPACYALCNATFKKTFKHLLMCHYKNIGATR
# Mu-type opioid receptor = Mu-type opioid receptor (Homo sapiens, UniProt P35372)
# Sequence of Mu-type opioid receptor (P35372 whole entry): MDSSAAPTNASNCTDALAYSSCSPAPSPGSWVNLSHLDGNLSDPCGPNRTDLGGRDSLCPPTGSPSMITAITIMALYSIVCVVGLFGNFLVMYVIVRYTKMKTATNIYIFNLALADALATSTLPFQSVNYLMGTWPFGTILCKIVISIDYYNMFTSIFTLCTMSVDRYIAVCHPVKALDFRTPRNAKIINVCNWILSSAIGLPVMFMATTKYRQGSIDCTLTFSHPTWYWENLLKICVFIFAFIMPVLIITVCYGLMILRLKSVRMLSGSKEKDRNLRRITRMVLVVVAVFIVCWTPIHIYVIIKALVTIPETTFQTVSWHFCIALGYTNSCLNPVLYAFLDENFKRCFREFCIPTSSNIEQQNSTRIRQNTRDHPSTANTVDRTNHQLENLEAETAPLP
# D(3) dopamine receptor = D(3) dopamine receptor (Homo sapiens, UniProt P35462)
# Sequence of D(3) dopamine receptor (P35462 whole entry): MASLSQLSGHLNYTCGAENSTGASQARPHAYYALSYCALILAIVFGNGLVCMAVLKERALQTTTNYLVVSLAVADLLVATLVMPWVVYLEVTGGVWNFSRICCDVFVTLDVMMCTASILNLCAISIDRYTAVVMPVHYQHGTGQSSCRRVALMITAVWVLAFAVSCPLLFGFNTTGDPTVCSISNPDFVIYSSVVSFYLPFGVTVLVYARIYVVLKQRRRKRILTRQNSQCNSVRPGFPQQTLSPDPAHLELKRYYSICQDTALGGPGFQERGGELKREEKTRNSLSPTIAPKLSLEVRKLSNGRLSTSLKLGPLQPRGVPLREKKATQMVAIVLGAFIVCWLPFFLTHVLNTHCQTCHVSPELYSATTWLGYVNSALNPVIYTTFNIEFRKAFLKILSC
# [2] = biological target: T2, 5-hydroxytryptamine receptor 1A (Homo sapiens, UniProt P08908)
# T2 sequence (P08908 whole entry): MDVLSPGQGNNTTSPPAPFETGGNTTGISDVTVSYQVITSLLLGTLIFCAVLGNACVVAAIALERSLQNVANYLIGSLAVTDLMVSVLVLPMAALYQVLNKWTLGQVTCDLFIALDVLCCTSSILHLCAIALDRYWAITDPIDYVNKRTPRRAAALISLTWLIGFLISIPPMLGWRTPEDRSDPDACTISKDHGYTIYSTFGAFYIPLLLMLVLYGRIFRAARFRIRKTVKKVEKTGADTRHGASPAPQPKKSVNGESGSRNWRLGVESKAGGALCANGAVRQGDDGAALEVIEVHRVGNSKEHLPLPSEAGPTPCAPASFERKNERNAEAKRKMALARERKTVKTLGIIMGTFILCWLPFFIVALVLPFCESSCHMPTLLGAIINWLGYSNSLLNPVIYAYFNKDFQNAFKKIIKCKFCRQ
# [3] = biological target: T3, Alpha-1A adrenergic receptor (Homo sapiens, UniProt P35348); type: functional, cell-based
# T3 sequence (P35348 whole entry): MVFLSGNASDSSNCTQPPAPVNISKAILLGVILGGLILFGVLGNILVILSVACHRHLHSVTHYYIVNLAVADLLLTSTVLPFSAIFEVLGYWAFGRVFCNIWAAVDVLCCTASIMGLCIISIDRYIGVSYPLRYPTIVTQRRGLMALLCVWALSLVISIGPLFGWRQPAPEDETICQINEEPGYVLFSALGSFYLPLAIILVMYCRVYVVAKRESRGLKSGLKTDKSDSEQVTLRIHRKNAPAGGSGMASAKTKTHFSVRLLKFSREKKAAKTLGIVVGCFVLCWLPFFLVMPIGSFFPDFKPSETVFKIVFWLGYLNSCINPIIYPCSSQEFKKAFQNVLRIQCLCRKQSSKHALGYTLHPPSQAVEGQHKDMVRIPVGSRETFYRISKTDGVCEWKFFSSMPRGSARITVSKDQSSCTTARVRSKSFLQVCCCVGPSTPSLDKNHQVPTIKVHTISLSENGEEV
# Histamine H3 receptor = Histamine H3 receptor (Homo sapiens, UniProt Q9Y5N1)
# Sequence of Histamine H3 receptor (Q9Y5N1 whole entry): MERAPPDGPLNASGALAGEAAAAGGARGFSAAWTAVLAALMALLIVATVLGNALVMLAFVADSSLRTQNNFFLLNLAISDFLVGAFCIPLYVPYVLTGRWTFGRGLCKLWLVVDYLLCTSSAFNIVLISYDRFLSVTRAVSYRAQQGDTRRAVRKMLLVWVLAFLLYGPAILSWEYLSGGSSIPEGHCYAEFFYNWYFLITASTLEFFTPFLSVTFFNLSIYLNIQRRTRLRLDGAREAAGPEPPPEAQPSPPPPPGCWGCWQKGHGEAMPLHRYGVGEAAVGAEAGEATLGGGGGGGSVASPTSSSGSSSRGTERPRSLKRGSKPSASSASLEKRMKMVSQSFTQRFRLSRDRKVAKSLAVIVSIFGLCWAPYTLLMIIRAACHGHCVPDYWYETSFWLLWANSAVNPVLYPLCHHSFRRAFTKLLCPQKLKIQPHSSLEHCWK
# [4] = biological target: Sodium-dependent noradrenaline transporter (Homo sapiens, UniProt P23975)
# Sequence of Sodium-dependent noradrenaline transporter (P23975 whole entry): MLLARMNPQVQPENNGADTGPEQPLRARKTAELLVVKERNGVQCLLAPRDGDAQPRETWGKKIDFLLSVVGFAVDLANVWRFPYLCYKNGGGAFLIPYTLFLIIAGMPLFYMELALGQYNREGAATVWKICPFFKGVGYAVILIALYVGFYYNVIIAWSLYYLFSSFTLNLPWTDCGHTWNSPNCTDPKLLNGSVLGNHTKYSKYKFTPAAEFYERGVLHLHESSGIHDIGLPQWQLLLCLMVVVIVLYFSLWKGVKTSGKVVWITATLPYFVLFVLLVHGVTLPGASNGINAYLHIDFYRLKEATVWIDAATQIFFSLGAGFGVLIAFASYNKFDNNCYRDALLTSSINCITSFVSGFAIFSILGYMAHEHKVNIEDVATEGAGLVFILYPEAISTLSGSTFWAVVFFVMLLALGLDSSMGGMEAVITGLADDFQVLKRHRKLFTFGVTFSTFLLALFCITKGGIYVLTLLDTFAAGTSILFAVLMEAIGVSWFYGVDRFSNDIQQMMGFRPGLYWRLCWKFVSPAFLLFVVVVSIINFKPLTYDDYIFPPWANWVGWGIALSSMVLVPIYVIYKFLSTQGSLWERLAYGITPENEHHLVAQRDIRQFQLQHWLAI
# [5] = biological target: T4, Alpha-2A adrenergic receptor (Homo sapiens, UniProt P08913)
# T4 sequence (P08913 whole entry): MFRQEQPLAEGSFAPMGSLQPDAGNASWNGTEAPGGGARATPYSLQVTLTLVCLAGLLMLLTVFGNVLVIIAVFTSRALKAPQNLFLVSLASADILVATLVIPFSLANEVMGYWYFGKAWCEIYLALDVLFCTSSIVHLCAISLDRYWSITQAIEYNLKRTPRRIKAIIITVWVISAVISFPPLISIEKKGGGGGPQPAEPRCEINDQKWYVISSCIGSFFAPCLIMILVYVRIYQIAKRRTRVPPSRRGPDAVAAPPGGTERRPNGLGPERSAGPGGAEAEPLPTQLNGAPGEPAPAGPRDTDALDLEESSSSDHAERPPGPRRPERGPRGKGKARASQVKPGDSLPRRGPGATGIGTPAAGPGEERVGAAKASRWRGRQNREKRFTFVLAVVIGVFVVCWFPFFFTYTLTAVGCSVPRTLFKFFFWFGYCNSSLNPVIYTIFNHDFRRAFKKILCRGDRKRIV
# [6] = biological target: Gamma-aminobutyric acid receptor subunit alpha-1 (Rattus norvegicus, UniProt P62813)
# Sequence of Gamma-aminobutyric acid receptor subunit alpha-1 (P62813 whole entry): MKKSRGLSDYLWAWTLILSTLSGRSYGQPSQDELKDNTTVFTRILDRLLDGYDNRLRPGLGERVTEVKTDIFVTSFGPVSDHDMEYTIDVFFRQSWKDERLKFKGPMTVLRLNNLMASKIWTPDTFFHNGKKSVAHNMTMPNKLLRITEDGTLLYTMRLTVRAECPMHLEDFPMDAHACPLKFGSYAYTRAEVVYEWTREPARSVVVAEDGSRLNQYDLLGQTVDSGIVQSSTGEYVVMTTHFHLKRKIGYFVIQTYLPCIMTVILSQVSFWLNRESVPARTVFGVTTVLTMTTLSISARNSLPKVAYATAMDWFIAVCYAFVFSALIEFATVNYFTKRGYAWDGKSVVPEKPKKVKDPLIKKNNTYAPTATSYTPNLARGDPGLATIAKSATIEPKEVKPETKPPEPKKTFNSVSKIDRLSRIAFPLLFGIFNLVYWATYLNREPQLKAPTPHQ
# [7] = biological target: T5, Amine oxidase [flavin-containing] A (Homo sapiens, UniProt P21397); type: functional
# T5 sequence (P21397 whole entry): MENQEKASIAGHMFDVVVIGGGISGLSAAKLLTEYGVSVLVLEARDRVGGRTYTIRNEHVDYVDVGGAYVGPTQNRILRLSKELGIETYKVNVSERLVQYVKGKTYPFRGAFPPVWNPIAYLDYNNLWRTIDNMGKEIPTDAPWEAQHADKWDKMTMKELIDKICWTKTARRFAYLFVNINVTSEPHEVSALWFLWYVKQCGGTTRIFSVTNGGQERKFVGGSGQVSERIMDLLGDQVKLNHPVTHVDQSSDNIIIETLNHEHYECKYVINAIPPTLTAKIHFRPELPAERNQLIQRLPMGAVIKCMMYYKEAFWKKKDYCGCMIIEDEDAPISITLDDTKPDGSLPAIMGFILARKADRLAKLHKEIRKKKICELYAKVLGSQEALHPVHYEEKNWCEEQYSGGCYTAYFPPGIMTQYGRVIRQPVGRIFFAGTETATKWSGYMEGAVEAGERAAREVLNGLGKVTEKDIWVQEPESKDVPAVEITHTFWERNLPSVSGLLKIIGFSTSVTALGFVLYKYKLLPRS
# [8] = biological target: Sodium-dependent dopamine transporter (Homo sapiens, UniProt Q01959)
# Sequence of Sodium-dependent dopamine transporter (Q01959 whole entry): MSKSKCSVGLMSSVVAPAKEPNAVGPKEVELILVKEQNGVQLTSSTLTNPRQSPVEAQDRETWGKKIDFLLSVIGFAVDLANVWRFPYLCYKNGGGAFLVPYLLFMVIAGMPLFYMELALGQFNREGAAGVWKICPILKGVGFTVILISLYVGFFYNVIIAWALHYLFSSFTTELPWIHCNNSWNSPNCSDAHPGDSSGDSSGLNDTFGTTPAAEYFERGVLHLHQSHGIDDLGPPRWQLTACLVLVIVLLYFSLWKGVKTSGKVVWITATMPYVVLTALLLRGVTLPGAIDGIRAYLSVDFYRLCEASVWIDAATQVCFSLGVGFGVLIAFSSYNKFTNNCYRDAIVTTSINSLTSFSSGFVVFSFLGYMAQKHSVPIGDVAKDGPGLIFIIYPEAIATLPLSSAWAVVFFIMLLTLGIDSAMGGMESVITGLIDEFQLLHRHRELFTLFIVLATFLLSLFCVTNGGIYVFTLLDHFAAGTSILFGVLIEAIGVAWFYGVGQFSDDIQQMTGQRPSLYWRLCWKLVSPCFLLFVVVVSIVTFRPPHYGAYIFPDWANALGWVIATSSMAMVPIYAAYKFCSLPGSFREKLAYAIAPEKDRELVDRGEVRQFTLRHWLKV
# [9] = biological target: 5-hydroxytryptamine receptor 2B (Homo sapiens, UniProt P41595); type: functional, cell-based
# D(4) dopamine receptor = biological target: T6, D(4) dopamine receptor (Homo sapiens, UniProt P21917)
# T6 sequence (P21917 whole entry): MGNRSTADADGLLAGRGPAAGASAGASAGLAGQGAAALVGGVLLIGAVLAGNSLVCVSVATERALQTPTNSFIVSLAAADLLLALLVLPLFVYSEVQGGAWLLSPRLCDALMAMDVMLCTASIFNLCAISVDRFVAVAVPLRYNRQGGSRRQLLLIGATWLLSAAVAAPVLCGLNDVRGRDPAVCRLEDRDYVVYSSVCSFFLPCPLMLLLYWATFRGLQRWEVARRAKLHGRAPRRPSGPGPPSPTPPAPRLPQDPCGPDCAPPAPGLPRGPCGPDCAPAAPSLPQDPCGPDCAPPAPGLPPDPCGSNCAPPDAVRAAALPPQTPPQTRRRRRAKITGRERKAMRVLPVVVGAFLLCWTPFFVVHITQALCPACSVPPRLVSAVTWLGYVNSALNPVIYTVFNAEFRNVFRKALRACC
# [10] = biological target: Sodium-dependent serotonin transporter (Homo sapiens, UniProt P31645)
# Sequence of Sodium-dependent serotonin transporter (P31645 whole entry): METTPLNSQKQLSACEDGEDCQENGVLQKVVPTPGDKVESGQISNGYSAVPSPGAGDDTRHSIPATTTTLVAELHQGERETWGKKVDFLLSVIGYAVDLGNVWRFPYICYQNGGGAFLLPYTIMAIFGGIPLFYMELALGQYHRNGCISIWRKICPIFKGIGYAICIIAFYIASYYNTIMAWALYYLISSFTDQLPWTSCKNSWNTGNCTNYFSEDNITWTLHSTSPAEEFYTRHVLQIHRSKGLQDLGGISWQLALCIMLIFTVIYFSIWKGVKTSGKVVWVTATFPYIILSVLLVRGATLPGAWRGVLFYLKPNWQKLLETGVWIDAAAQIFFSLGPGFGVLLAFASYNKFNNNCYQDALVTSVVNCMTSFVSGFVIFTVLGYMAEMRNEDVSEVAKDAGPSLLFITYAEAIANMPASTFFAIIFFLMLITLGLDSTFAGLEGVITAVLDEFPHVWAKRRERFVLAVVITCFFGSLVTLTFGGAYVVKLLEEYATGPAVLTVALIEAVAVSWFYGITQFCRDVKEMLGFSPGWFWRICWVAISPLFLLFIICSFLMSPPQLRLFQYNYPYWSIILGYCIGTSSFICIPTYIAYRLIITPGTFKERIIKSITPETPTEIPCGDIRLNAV
# Further: assay procedure not described here.
# Sequence of Acetylcholinesterase (P22303 whole entry): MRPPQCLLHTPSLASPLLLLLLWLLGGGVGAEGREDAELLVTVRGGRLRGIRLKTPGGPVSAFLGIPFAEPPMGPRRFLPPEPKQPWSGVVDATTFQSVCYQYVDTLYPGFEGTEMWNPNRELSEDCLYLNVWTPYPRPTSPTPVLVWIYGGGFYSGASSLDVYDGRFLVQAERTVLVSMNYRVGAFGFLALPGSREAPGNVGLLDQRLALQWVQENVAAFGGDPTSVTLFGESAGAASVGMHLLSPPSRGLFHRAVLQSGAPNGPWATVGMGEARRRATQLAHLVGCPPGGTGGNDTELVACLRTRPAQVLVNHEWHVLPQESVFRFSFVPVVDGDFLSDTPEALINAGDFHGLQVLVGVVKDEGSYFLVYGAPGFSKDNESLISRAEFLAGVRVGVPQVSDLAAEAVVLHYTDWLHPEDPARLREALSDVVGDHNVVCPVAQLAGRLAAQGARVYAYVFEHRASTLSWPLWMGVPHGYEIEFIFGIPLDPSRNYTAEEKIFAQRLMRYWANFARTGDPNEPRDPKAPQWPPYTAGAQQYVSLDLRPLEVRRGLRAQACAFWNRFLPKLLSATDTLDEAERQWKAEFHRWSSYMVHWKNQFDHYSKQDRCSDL
# Sequence of D(1A) dopamine receptor (P21728 whole entry): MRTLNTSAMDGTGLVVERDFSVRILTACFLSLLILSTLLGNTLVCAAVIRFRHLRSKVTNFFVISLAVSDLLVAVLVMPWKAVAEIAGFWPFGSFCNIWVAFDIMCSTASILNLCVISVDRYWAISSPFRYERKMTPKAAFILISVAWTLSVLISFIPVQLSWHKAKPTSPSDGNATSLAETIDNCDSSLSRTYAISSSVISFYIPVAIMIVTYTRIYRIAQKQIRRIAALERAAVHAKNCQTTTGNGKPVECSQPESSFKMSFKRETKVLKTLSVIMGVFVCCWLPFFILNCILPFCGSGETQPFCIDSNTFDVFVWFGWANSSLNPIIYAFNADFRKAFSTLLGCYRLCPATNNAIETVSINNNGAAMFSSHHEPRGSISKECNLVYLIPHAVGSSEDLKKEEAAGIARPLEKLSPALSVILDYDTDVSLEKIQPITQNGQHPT
compound,measurement,setting,value
CN1CCCN=C1/C=C/c1cccs1,AC50,Acetylcholinesterase,10.9 µM
CC[C@@]1(O)C[C@H](O[C@H]2C[C@H](N(C)C)[C@H](O[C@H]3C[C@H](O)[C@H](O[C@H]4CCC(=O)[C@H](C)O4)[C@H](C)O3)[C@H](C)O2)c2c(cc3c(c2O)C(=O)c2c(O)cccc2C3=O)[C@H]1C(=O)OC [ACLARUBICIN],AC50,D(1A) dopamine receptor,> 30 µM
same,AC50,[1],> 30 µM
same,AC50,Mu-type opioid receptor,> 30 µM
same,AC50,D(3) dopamine receptor,> 30 µM
same,AC50,[2],> 30 µM
same,AC50,[3],> 30 µM
same,AC50,Histamine H3 receptor,> 30 µM
same,AC50,[4],> 30 µM
same,AC50,[5],> 30 µM
same,AC50,Acetylcholinesterase,> 30 µM
same,AC50,[6],> 30 µM
same,AC50,[7],> 30 µM
same,AC50,[8],> 30 µM
same,AC50,[9],> 30 µM
CCOC(=O)C1=C(COCCN)NC(C)=C(C(=O)OC)C1c1ccccc1Cl (stereo unspecified) [AMLODIPINE],AC50,Acetylcholinesterase,> 30 µM
CN/C(=N/CCSCc1nc[nH]c1C)NC#N [CIMETIDINE],AC50,Acetylcholinesterase,> 30 µM
CC(C)n1c(/C=C/C(O)CC(O)CC(=O)O)c(-c2ccc(F)cc2)c2ccccc21 (stereo unspecified) [FLUVASTATIN],AC50,Acetylcholinesterase,> 30 µM
O=c1[nH]c2ccccc2n1C1CCN(CCCC(c2ccc(F)cc2)c2ccc(F)cc2)CC1 [PIMOZIDE],AC50,D(4) dopamine receptor,0.0728 µM
CN1CCN(CC(=O)N2c3ccccc3C(=O)Nc3cccnc32)CC1 [PIRENZEPINE],AC50,[10],> 30 µM
same,AC50,Acetylcholinesterase,> 30 µM
